Blank lines part the entries; values can stand above or below the compound they belong to.
Experiments:
[1] = biological target: T1, Uncharacterized serine/threonine-protein kinase SBK3 (Homo sapiens) (UniProt P0C264); assay: Selectivity interaction (KinomeScan (DiscoverX)) EUB0001079a SBK3; settings: at 1 µM
T1 sequence (whole entry): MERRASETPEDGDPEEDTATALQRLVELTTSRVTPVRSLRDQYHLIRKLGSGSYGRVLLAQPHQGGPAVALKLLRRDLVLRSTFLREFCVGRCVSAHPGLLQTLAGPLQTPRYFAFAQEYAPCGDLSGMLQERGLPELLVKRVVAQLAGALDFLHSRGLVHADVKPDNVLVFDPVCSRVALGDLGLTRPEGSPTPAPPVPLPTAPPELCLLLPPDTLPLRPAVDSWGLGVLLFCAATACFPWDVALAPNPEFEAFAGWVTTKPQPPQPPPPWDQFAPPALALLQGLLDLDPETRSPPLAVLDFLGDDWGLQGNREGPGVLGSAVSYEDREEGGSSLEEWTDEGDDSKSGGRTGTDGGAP

[2] = biological target: T2, Mitogen-activated protein kinase kinase kinase 13 (Homo sapiens) (UniProt O43283); assay: Selectivity interaction (KinomeScan (DiscoverX)) EUB0000618a MAP3K13; settings: at 10 µM
T2 sequence (whole entry): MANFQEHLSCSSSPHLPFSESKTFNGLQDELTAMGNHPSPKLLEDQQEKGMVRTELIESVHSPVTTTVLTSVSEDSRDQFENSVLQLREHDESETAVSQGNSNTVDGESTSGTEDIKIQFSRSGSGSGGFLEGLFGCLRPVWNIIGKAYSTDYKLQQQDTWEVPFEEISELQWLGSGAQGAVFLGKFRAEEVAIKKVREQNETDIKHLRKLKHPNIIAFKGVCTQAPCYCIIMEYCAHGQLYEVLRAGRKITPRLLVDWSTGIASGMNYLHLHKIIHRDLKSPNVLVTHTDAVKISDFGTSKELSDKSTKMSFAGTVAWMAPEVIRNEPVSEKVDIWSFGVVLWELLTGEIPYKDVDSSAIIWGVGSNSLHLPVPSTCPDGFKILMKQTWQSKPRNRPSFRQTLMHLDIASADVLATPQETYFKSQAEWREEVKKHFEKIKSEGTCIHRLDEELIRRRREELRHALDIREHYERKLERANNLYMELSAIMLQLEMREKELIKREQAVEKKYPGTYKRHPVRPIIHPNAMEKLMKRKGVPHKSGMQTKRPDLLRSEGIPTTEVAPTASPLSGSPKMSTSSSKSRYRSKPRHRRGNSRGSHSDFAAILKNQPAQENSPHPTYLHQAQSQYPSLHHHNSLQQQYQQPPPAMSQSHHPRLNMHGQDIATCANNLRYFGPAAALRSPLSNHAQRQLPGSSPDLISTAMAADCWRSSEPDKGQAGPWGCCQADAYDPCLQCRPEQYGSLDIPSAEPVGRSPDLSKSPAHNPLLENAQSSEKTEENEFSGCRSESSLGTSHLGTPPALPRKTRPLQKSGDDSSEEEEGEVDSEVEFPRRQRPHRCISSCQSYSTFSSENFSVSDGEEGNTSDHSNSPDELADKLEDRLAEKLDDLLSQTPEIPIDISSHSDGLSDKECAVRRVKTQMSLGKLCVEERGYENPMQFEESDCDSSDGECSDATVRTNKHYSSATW

[3] = biological target: T3, Serine/threonine-protein kinase Nek11 (Homo sapiens) (UniProt Q8NG66); assay: Selectivity interaction (KinomeScan (DiscoverX)) EUB0000595a NEK11; settings: at 10 µM
T3 sequence (whole entry): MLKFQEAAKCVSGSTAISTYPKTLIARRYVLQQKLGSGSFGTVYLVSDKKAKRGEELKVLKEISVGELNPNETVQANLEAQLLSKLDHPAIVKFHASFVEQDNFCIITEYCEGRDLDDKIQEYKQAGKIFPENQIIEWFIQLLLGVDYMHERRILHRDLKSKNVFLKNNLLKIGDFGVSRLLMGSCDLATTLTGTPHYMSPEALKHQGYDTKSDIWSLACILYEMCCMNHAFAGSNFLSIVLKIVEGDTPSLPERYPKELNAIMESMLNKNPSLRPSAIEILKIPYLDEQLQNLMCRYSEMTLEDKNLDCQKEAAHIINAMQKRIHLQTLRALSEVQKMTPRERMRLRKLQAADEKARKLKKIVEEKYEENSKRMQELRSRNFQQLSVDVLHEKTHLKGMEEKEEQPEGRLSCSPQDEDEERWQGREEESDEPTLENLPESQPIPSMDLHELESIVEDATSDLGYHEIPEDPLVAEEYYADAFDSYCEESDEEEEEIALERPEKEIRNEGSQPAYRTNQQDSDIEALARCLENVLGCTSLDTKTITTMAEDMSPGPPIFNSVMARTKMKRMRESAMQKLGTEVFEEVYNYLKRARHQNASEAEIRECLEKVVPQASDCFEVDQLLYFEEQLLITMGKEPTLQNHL

[4] = biological target: Calcium/calmodulin-dependent protein kinase type 1 (Homo sapiens) (UniProt Q14012); assay: Selectivity interaction (KinomeScan (DiscoverX)) EUB0000229b CAMK1; settings: at 10 µM
Chain of Calcium/calmodulin-dependent protein kinase type 1 (Homo sapiens) (Q14012 whole entry, looked up, canonical isoform): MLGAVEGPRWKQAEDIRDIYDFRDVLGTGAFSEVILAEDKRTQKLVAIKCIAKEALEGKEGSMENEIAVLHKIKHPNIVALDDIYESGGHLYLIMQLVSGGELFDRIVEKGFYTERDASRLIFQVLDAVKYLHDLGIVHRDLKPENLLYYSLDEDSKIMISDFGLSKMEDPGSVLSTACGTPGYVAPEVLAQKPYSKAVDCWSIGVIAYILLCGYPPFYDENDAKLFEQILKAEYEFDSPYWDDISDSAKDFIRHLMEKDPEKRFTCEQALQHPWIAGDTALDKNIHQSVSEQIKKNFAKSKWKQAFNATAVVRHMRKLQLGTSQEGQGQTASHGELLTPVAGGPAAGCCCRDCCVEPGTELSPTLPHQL

[5] = biological target: Phosphatidylinositol 4,5-bisphosphate 3-kinase catalytic subunit alpha isoform (Homo sapiens) (UniProt P42336); assay: Selectivity interaction (ProQinase) EUB0000171b PIK3CA
Chain of Phosphatidylinositol 4,5-bisphosphate 3-kinase catalytic subunit alpha isoform (Homo sapiens) (P42336 whole entry, canonical isoform): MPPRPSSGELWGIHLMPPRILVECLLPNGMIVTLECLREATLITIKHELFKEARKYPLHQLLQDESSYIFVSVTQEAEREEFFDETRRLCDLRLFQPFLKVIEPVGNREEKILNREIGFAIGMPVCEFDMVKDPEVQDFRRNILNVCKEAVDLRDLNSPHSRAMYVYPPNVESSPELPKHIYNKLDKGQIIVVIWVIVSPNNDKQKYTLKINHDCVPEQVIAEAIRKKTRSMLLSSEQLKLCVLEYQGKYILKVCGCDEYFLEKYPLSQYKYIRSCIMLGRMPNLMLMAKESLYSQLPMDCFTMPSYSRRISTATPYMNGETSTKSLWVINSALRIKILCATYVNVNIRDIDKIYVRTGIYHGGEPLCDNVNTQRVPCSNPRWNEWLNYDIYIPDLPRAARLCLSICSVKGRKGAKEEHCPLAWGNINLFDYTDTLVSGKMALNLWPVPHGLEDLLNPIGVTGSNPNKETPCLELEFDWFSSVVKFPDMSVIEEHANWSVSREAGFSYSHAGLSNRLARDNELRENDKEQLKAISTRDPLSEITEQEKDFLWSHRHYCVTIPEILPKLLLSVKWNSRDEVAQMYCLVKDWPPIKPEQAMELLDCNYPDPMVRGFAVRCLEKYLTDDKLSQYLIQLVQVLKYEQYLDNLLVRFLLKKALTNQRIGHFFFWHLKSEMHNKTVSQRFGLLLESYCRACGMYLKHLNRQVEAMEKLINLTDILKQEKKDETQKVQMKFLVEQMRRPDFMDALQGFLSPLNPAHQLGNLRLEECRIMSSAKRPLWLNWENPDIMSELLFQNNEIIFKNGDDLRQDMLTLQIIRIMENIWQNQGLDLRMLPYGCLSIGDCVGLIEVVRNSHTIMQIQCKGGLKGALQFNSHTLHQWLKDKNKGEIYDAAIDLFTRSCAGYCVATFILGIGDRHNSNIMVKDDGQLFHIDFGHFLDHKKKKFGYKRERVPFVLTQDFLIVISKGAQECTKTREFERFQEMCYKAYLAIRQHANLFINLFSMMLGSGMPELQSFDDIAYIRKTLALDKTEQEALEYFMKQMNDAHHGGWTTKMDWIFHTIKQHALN

SMILES: Nc1cnc(N2CCc3cc(S(=O)(=O)Nc4c(F)cc(Cl)cc4F)cc(N4CCCC4=O)c32)nc1 [TP-020n]
% of control [1]: 100%

SMILES: O[C@H]1CC[C@H](Nc2ncc3nc(Nc4c(F)cc(F)cc4F)n([C@H]4CCOC4)c3n2)CC1
% of control [2]: 100%

SMILES: COCC(=O)NC/C=C/c1ccc2ncnc(Nc3ccc(Oc4ccc(C)nc4)c(C)c3)c2c1 [CP-724714]
% of control [3]: 100%

SMILES: COc1cc(N(C)c2ccnc3ccc(C(F)(F)F)cc23)cc(OC)c1OC
% binding [4]: 59%

% of control ([5]; at 1 µM): 118%
% of control ([5]; at 5 µM): 106%
SMILES: C=CC(=O)Nc1cccc(C(=O)Nc2ccc(Nc3cc(-c4[nH]c(SC)nc4C)ccn3)cc2)c1

From ChEMBL document CHEMBL5465560, “Selectivity Literature for EUbOPEN Chemogenomic Library” (2024)
